# Literature values as cited in US20240342171A1, “DISCOVERY OF A F-ATP SYNTHASE INHIBITOR FOR THE TREATMENT OF MYCOBACTERIUM ABSCESSUS DISEASES” (priority 2021, published 2024).
# Experiments:
# [1] = mouse liver microsomes; Hotra et al. 2020
# [2] = Hotra et al. 2020
# M. abscessus = conditions: for MIC of clinically used anti-M. abscessus drugs: Brown-Elliott et al. 2016; for mode of action against M. abscessus: background statement
smiles,measurement,setting,value
CCNc1cc(C)nc(Nc2ccc(NC(=O)c3cccc(Br)c3)cc2)n1 [GaMF1],metabolic stability,[1],good metabolic stability
same,c log P,[2],4.37
NCC[C@H](O)C(=O)N[C@@H]1C[C@H](N)[C@@H](O[C@H]2O[C@H](CN)[C@@H](O)[C@H](O)[C@H]2O)[C@H](O)[C@H]1O[C@H]1O[C@H](CO)[C@@H](O)[C@H](N)[C@H]1O [amikacin],MIC of clinically used anti-M. abscessus drugs,M. abscessus; Ferro et al. 2016,55 µM
COc1cc([C@](O)(CCN(C)C)[C@@H](c2cc3cc(Br)ccc3nc2OC)c2cc(OC)nc(OC)c2OC)cc(OC)n1 [TBAJ876],mode of action against M. abscessus,M. abscessus,mostly bacteriostatic
CO[C@@]1(NC(=O)Cc2cccs2)C(=O)N2C(C(=O)O)=C(COC(N)=O)CS[C@@H]21 [cefoxitin],MIC of clinically used anti-M. abscessus drugs,M. abscessus; Ferro et al. 2016,38 µM
"COc1nc2ccc(Br)cc2cc1[C@@H](c1ccccc1)[C@@](O)(CCN(C)C)c1cccc2ccccc12 [BDQ, bedaquiline]",mode of action against M. abscessus,M. abscessus,mostly bacteriostatic
CO[C@@]1(NC(=O)Cc2cccs2)C(=O)N2C(C(=O)O)=C(COC(N)=O)CS[C@@H]21 [cefocetin],MIC50 of first line drugs,M. abscessus; […],43 µM
"CC(C)/N=c1\cc2n(-c3ccc(Cl)cc3)c3ccccc3nc-2cc1Nc1ccc(Cl)cc1 [CFZ, clofazimine]",MIC50,M. abscessus; Ferro et al. 2016,6.8 µM
same,mode of action against M. abscessus,M. abscessus,mostly bacteriostatic
CO[C@H]1/C=C/O[C@@]2(C)Oc3c(C)c(O)c4c(c3C2=O)C2=NC3(CCN(CC(C)C)CC3)NC2=C(NC(=O)/C(C)=C\C=C\[C@H](C)[C@H](O)[C@@H](C)[C@@H](O)[C@@H](C)[C@H](OC(C)=O)[C@@H]1C)C4=O [rifabutin],MIC,M. abscessus,1 to 4 µM
